Experiments:
Type in all cases: in vivo, human
[1] = tested on: patients with liver cirrhosis; assay: Phase 2 clinical trial in liver cirrhosis: liver function (MELD score, Child-Pugh score, total bilirubin, INR, albumin); settings: for INR Change at Month 3 / Total bilirubin Change at Month 3 / Albumin Change at Month 3 / Child-Pugh score Change at Month 3 / MELD score Change at Month 3: 25 mg orally twice daily, three months, LOCF
Method: (§1) A double-blind, placebo-controlled Phase 2 clinical trial was conducted at 26 U.S. sites and enrolled 86 patients with liver cirrhosis due to different etiologies, mild to moderate liver impairment as determine by Child Pugh classification and baseline MELD scores of 11 to 18. Patients were randomized 1:1 to receive either 25 mg of emricasan (IDN-6556) or placebo orally twice daily for three months. Endpoints included a change from baseline in cCK18 and changes from baseline in MELD and Child-Pugh scores, which are composite scores of laboratory parameters associated with liver synthetic and excretory function, such as serum albumin levels, international normalized ratio (INR) and total bilirubin levels.
(§2) Among the 86 subjects enrolled and receiving study drug, liver cirrhosis etiologies included alcohol (39%), hepatitis C virus (29%), non-alcoholic steatohepatitis, or NASH (23%), and other causes (9%). Baseline MELD scores were […] in 78% of enrolled subjects and >15 in 22% of enrolled subjects. Baseline Child-Pugh status was A in 43% of subjects and B in 56% of subjects.
The overall trends were driven by statistically significant improvements in MELD and Child-Pugh scores in a high medical need subgroup of patients with baseline MELD scores ≥15, the established prerequisite for listing a patient for liver transplant.

[2] = tested on: patients with liver cirrhosis; assay: Phase 2 clinical trial in liver cirrhosis: common indicators of liver damage (ALT, AST); settings: overall patient population
Method: as §1, §2

[3] = tested on: caspase-driven cell death (cCK18, caspase 3/7, flCK18); assay: Phase 2 clinical trial in liver cirrhosis: mechanism-based biomarkers (cCK18, caspase 3/7, flCK18); settings: overall patient population
Method: as §1, §2

[4] = baseline MELD ≥15 subgroup, after three months of treatment, placebo two of ten

**Q.** Which results are given for C[C@H](NC(=O)C(=O)Nc1ccccc1C(C)(C)C)C(=O)N[C@@H](CC(=O)O)C(=O)COc1c(F)c(F)cc(F)c1F [Emricasan, (3S)-3-[N—(N′-(2-tert-Butylphenyl) Oxamyl)Alaninyl]Amino-5-(2′,3′,5′,6′-Tetrafluorophenoxy)-4-Oxopentanoic Acid]?
**A.** INR Change at Month 3 ([1]; baseline MELD score ≥15 patient population, N = 9, baseline 1.54, p 0.0004 vs placebo): −0.14; Total bilirubin Change at Month 3 ([1]; baseline MELD score ≥15 patient population, N = 9, baseline 3.17, p 0.03 vs placebo): -0.55 mg/dL; Albumin Change at Month 3 ([1]; baseline MELD score ≥15 patient population, N = 9, baseline 3.41, p 0.78 vs placebo): +0.07 g/dL; Child-Pugh score Change at Month 3 ([1]; baseline MELD score ≥15 patient population, N = 9, baseline 7.8, p 0.003 vs placebo): −0.6; MELD score Change at Month 3 ([1]; baseline MELD score ≥15 patient population, N = 9, baseline 16.0, p 0.003 vs placebo): −1.6; patients with an increase in Child-Pugh score ([1]; baseline MELD ≥15 subgroup, after three months of treatment, placebo four out of ten (at least one point increase)): none of nine; patients who achieved a reduction in MELD score to below 14 ([1]; baseline MELD ≥15 subgroup, after three months of treatment, placebo one out of ten): Four of nine; patients who achieved at least a 2 point reduction in MELD score [1, 4]: Six of nine; patients with at least a one point reduction in Child Pugh score [1, 4]: Four of nine; INR Change at Month 3 ([1]; overall patient population, N = 44, baseline 1.33, p 0.12 vs placebo): −0.02; Total bilirubin Change at Month 3 ([1]; overall patient population, N = 44, baseline 2.25, p 0.19 vs placebo): -0.05 mg/dL; Albumin Change at Month 3 ([1]; overall patient population, N = 44, baseline 3.46, p 0.38 vs placebo): +0.02 g/dL; Child-Pugh score Change at Month 3 ([1]; overall patient population, N = 44, baseline 6.9, p 0.10 vs placebo): −0.2; MELD score Change at Month 3 ([1]; overall patient population, N = 44, baseline 12.8, p 0.50 vs placebo): −0.1; common indicators of liver damage (ALT, AST) [2]: positive changes; ALT Change at Month 3 (median change) ([2]; N = 44, 25 mg orally twice daily, three months, LOCF, baseline 27.5, p 0.03 vs placebo): −3.0 U/L; AST Change at Month 3 (median change) ([2]; N = 44, 25 mg orally twice daily, three months, LOCF, baseline 50.0, p 0.08 vs placebo): −5.0 U/L; other mechanism-based biomarkers (caspase 3/7, flCK18) [3]: positive changes; cCK18 Change at Month 3 ([3]; N = 44, 25 mg orally twice daily for three months, last observation carried forward, baseline 289 U/L (geometric mean), p 0.04 vs placebo): −4.6%; flCK18 Change at Month 3 ([3]; N = 44, 25 mg orally twice daily, three months, LOCF, baseline 714 U/L, p 0.005 vs placebo): −18%; Caspase 3/7 Change at Month 3 ([3]; N = 44, 25 mg orally twice daily, three months, LOCF, baseline 2656 RLU, p <0.0001 vs placebo): −45.5%; caspase-cleaved cytokeratin 18 (cCK18) vs. placebo ([3]; adjusted for baseline MELD score and disease etiology, p=0.04): statistically significant reduction
